Source: ChEMBL document CHEMBL5370603, “N-(2-Aminophenyl)-benzamide Inhibitors of Class I HDAC Enzymes with Antiproliferative and Antifibrotic Activity” (J Med Chem, 2023)
Calls of active or inactive are those of the source. The rule behind the calls is not given here.

Legend:
Histone deacetylase 1 = Histone deacetylase 1 (Homo sapiens, UniProt Q13547); assay: Inhibition of human recombinant HDAC1 using Ac-Leu-Gly-Lys(Ac)-AMC as substrate preincubated with enzyme for 30 mins followed by substrate addition and measured after 90 mins by fluorescence based analysis
Histone deacetylase 3 = Histone deacetylase 3 (Homo sapiens, UniProt O15379); assay: Inhibition of human recombinant HDAC3 using Ac-Leu-Gly-Lys(Ac)-AMC as substrate preincubated with enzyme for 30 mins followed by substrate addition and measured after 90 mins by fluorescence based analysis
[1] = biological target: T1, Protein deacetylase HDAC6 (Homo sapiens, UniProt Q9UBN7); assay: Inhibition of C-terminal FLAG-tagged human recombinant full length HDAC6 expressed in baculovirus expression system using Boc-Lys(Ac)-AMC as substrate preincubated with enzyme for 15 mins followed by substrate addition and measured after 60 mins by fluorescence based analysis
T1 sequence (Q9UBN7 whole entry): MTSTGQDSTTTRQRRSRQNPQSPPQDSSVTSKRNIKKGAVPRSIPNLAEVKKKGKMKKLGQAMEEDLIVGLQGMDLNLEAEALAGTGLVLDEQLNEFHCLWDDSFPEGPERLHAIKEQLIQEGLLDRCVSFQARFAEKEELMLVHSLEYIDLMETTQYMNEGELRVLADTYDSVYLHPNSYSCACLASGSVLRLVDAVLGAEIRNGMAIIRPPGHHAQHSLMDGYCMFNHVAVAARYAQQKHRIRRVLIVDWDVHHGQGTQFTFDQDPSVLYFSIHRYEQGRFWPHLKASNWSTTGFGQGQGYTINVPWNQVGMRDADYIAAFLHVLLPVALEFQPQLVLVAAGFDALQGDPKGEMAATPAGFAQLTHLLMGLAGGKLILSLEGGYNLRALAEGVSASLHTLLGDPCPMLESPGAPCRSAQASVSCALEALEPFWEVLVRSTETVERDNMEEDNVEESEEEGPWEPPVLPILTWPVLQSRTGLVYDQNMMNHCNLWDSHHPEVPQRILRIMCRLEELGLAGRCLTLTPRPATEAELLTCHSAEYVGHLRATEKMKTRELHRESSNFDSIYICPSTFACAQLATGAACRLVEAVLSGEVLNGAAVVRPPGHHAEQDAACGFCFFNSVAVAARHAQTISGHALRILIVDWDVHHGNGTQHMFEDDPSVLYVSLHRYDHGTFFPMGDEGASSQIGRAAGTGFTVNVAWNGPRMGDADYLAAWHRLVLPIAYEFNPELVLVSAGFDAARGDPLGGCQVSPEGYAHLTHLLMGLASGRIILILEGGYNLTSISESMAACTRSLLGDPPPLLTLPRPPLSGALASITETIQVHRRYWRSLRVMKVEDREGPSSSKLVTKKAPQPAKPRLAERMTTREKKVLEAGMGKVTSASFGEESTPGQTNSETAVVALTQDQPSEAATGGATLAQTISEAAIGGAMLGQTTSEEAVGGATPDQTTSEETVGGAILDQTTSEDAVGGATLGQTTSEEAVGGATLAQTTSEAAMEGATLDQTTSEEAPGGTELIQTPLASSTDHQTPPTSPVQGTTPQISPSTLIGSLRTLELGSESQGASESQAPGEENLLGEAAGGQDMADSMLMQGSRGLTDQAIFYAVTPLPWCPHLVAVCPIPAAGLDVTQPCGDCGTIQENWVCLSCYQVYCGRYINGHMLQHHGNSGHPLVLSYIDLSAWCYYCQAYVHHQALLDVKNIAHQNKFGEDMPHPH

Histone deacetylase 8 = biological target: T2, Histone deacetylase 8 (Homo sapiens, UniProt Q9BY41); assay: Inhibition of C-terminal His-tagged human recombinant full length HDAC8 (1 to 377 residues) expressed in Sf9 cells using Ac-Leu-Gly-Lys(trifluoroAc)-AMC as substrate preincubated with enzyme for 30 mins followed by substrate addition and measured after 90 mins by fluorescence based analysis
T2 sequence (Q9BY41 whole entry): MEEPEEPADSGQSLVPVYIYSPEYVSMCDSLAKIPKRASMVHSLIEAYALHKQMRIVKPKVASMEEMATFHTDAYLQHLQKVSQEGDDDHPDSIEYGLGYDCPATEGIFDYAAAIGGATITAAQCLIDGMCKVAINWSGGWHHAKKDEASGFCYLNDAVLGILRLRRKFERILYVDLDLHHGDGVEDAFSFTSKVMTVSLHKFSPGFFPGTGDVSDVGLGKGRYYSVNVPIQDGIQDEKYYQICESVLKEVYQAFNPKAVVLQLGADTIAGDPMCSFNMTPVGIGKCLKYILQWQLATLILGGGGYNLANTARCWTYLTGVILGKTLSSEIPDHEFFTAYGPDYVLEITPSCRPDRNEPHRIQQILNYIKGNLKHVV

Histone deacetylase 4 = Histone deacetylase 4 (Homo sapiens, UniProt P56524); assay: Inhibition of N-terminal GST-tagged/C-terminal His tagged human recombinant HDAC4 (627 to 1084 residues) expressed in baculovirus-infected Sf9 cells using Ac-Leu-Gly-Lys(trifluoroAc)-AMC as substrate preincubated with enzyme for 15 mins followed by substrate addition and measured after 60 mins by fluorescence based analysis
A549 = assay: Antiproliferative activity against human A549 cells assessed as inhibition of cell growth incubated for 72 hrs by MTT assay; assay type: functional, cell-based; settings: A549, 72 h
SF-268 = assay: Antiproliferative activity against human SF-268 cells assessed as inhibition of cell growth incubated for 72 hrs by MTT assay; assay type: functional, cell-based; settings: SF-268, 72 h
[2] = Toxicity against human primary lung fibroblasts assessed as effect on cell viability upto 20 uM incubated for 72 hrs by MTT assay; assay type: cell-based; settings: fibroblast
[3] = biological target: T3, Class 1 histone deacetylase (Homo sapiens) (UniProt Q13547+O15379+Q92769+Q9BY41); assay: Inhibition of class I HDAC in human A549 cells assessed as increase in histone H3 acetylation at 5 uM incubated for 48 hrs by immunoblot analysis; assay type: cell-based
[4] = biological target: T4, Protein deacetylase HDAC6 (Homo sapiens) (UniProt Q9UBN7); assay: Inhibition of HDAC6 in human A549 cells assessed as increase in acetylated alpha-tubulin level at 5 uM incubated for 48 hrs by immunoblot analysis; assay type: cell-based
T4 sequence (whole entry): T1 sequence (Q9UBN7 whole entry)

[5] = biological target: T3, Class 1 histone deacetylase (Homo sapiens); assay: Inhibition of class I HDAC in human A549 cells assessed as downregulation of EGFR protein expression at 5 uM incubated for 48 hrs by western blot analysis; assay type: cell-based
Mus musculus [6] = assay: Anti-fibrotic activity against BLM-induced pulmonary fibrosis C57BL/6 mouse model assessed as reduction in pulmonary edema by measuring decrease in total protein concentration in BALF at 30 mg/kg, ip bid for 15 days starting from 1 day before BLM challenge by Bradford assay; assay type: functional, organism-based; settings: time 15.0 day
Mus musculus [7] = assay: Anti-fibrotic activity against BLM-induced pulmonary fibrosis C57BL/6 mouse model assessed as reduction in pulmonary inflammation by measuring decrease in cell number infiltration in BALF at 30 mg/kg, ip bid for 15 days starting from 1 day before BLM challenge by hematocytometer analysis; assay type: functional, organism-based; settings: time 15.0 day
Mus musculus [8] = assay: Anti-fibrotic activity against BLM-induced pulmonary fibrosis C57BL/6 mouse model assessed as reduction in soluble collagen protein level in BALF at 30 mg/kg, ip bid for 15 days starting from 1 day before BLM challenge by Direct Red assay; assay type: functional, organism-based; settings: time 15.0 day
Mus musculus [9] = assay: Anti-fibrotic activity against BLM-induced pulmonary fibrosis C57BL/6 mouse model assessed as reduction in Col1a1 gene expression in lungs at 30 mg/kg, ip bid for 15 days starting from 1 day before BLM challenge by qRT-PCR analysis; assay type: functional, organism-based; settings: time 15.0 day
Mus musculus [10] = assay: Anti-fibrotic activity against BLM-induced pulmonary fibrosis C57BL/6 mouse model assessed as reduction in fibrotic masses in lungs at 30 mg/kg, ip bid for 15 days starting from 1 day before BLM challenge by Hematoxylin-Eosin staining based analysis; assay type: functional, organism-based; settings: time 15.0 day
Mus musculus [11] = assay: Anti-fibrotic activity against BLM-induced pulmonary fibrosis C57BL/6 mouse model assessed as reduction in collagen deposition in lungs at 30 mg/kg, ip bid for 15 days starting from 1 day before BLM challenge by Sirius Red staining based analysis; assay type: functional, organism-based; settings: time 15.0 day
Fibroblast = assay: Anti-fibrotic activity in human primary lung fibroblast assessed as inhibition of TGFbeta1-induced COL1A1 mRNA expression at 5 to 10 uM pretreated for 1 hr followed by TGFbeta1 stimulation and measured after 24 hrs by qRT-PCR analysis; assay type: functional, cell-based; settings: dose 5-10 µM, time 25.0 hrs
Histone deacetylase 2 = Histone deacetylase 2 (Homo sapiens, UniProt Q92769); assay: Inhibition of human recombinant HDAC2 using Ac-Leu-Gly-Lys(Ac)-AMC as substrate preincubated with enzyme for 30 mins followed by substrate addition and measured after 90 mins by fluorescence based analysis
Caco-2 = assay: Antiproliferative activity against human Caco-2 cells assessed as inhibition of cell growth incubated for 72 hrs by MTT assay; assay type: functional, cell-based; settings: Caco-2, 72 h

Chain of Histone deacetylase 3 (O15379 whole entry): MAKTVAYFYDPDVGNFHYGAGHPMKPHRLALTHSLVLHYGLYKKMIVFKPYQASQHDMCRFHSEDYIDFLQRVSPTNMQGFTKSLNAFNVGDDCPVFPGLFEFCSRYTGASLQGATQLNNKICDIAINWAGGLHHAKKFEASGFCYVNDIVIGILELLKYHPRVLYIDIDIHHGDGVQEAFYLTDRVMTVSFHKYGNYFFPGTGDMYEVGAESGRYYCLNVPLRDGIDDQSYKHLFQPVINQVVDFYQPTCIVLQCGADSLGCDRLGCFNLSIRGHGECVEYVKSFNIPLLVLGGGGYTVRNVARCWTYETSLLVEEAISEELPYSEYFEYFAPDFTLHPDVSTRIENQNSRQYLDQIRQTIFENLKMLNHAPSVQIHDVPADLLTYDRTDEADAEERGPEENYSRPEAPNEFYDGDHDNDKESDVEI
Chain of Histone deacetylase 1 (Q13547 whole entry): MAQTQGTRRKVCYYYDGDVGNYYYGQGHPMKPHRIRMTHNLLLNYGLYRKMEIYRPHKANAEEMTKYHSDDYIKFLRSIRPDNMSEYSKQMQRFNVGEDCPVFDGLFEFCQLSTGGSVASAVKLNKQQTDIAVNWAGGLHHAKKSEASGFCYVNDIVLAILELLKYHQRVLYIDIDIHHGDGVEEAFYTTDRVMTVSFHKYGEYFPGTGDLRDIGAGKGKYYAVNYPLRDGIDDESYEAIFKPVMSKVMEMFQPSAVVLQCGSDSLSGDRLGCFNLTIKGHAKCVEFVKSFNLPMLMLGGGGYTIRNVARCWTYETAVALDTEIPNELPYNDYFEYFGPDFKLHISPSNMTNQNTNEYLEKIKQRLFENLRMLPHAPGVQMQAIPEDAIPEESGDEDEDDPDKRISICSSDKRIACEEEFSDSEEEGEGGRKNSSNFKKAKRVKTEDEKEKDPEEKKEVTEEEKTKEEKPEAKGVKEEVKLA
Chain of Histone deacetylase 4 (P56524 whole entry, the tested form may be a part): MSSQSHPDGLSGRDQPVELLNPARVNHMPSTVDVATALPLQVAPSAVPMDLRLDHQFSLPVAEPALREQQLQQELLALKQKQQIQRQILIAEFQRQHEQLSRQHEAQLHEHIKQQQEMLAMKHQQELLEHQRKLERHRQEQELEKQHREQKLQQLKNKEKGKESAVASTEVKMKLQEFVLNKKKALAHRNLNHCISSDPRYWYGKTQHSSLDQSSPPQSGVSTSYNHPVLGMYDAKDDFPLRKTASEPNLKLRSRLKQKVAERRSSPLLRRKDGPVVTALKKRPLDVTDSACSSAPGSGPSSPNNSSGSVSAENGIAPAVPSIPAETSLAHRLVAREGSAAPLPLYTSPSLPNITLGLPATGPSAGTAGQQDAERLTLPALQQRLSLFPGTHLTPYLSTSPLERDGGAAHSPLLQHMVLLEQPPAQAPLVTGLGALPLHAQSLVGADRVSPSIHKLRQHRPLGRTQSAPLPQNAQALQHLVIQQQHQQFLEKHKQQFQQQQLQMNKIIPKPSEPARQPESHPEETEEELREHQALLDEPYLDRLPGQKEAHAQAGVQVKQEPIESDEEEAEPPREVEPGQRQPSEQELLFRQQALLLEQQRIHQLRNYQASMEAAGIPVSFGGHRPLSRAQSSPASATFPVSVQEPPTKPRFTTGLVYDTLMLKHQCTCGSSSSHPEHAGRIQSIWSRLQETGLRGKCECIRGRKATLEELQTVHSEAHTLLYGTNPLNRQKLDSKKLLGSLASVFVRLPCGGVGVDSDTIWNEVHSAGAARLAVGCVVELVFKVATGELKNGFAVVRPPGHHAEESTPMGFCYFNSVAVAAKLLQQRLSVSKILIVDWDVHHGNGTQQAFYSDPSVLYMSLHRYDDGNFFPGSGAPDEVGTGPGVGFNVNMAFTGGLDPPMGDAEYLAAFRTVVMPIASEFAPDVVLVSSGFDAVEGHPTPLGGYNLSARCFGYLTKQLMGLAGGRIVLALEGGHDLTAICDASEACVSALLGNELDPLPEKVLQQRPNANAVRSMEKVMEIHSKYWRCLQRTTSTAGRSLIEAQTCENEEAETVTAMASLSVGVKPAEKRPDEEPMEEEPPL
Chain of Histone deacetylase 2 (Q92769 whole entry): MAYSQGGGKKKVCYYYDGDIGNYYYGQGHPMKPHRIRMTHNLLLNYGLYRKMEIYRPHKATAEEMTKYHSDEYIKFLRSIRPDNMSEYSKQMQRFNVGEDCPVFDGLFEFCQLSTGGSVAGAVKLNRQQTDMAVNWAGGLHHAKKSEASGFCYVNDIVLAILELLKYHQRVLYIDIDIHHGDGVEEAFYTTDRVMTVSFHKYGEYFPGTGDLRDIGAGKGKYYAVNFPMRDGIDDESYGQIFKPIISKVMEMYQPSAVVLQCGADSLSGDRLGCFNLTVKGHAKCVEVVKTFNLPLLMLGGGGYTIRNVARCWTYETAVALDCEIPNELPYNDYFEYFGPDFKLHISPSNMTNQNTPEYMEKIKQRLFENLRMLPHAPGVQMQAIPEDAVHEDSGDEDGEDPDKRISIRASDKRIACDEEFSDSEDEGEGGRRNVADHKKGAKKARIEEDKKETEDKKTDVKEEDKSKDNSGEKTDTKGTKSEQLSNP

SMILES | IC50 (Histone deacetylase 1) [nM] | IC50 (Histone deacetylase 3) [nM] | IC50 [1] [µM] | IC50 (Histone deacetylase 8) [µM] | IC50 (Histone deacetylase 4) [µM] | IC50 (A549) [µM] | IC50 (SF-268) [µM] | Activity [2] | inhibition [3] | inhibition [4] | inhibition [5] | Activity (Mus musculus [6]) | Activity (Mus musculus [7]) | Activity (Mus musculus [8]) | Activity (Mus musculus [9]) | Activity (Mus musculus [10]) | Activity (Mus musculus [11]) | Activity (Fibroblast) | IC50 (Histone deacetylase 2) [nM] | IC50 (Caco-2) [nM]
Cl.Cl.Nc1ccccc1NC(=O)c1ccc(COc2ccc(CNC(=O)[C@H]3CCCN3)cc2)cc1 | 259 | 139 | > 10 | > 10 | > 100 | 6 | 3.1 | Non-Toxic | Active | inactive | Active | Active | Active | Active | Active | Active | Active | Active |  | 
Nc1ccccc1NC(=O)c1ccc(COc2ccc(CNC(=O)[C@@H]3CCC(=O)N3Cc3ccccc3)cc2)cc1 | 100 | 361 | > 100 | > 10 | > 100 | 6.8 | 4.8 | Non-Toxic |  |  |  | Active | Active | Active | Active | Active | Active | Active | 116 | 1900
